Reference: US20080280890A1, “HYDROXYLAMINE COMPOUNDS AND METHODS OF THEIR USE” (priority 2007, published 2008)

Experiments:
[1] = tested on: lipid peroxidation; assay: Lipid peroxidation inhibition (method of Ohkawa); format: biochemical
[2] = tested on: Angiogenesis in CAM model; assay: Neovascularization on the CAM (chick chorioallantoic membrane model of angiogenesis); format: in vivo, chicken; conditions: 30 ug; for Percent inhibition of angiogenesis in CAM model at 30 ug: unit assumed
Method: In vivo neovascularization was examined by the method previously described by Auerbach et al. (J. Dev. Biol. 41:391-394 (1974)). Ten-day old chicken embryos were purchased from Spafas, Inc. (Preston, Conn.) and were incubated at 37° C. with 55% relative humidity. In the dark, with the aid of a candling lamp, a small hole was punctured in the shell concealing the air sac with a hypodermic needle. A second hole was punctured in the shell on the broadside of the egg directly over an […] portion of the embryonic membrane, as observed during candling. An artificial air sac was created beneath the second hole by applying gentle vacuum to the first hole using a small rubber squeeze bulb. The vacuum caused the chorioallantoic membrane (CAM) to separate from the shell.
A window, approximately 1.0 cm^2, was cut in the shell over the dropped CAM with the use of a small crafts grinding wheel (Dremel, Division of Emerson Electric Company Racine, Wis.). The window allowed direct access to the underlying CAM.
A pro-angiogenic agent was added to induce new blood vessel branches on the CAM of 10-day old embryos. Filter disks of #1 filter paper (Whatman International, United Kingdom) were punched using a small puncher and were soaked in 3 mg/mL cortisone acetate (Sigma, St. Louis, Mo.) in a solution (95% ethanol and water). The disks were subsequently air dried under sterile conditions. The disks were then suspended in PBS (Phosphate Buffered Saline) and placed on growing CAMs. Filters treated with TP-H (TEMPOL-H) or TEMPOL and/or H2O2 or TP-H and/or bFGF or VEGF were placed on the first day of the 3-day incubation.
For inducing angiogenesis, sterile filter disks were saturated with bFGF (1 μg/ml) (Life Technologies, Gaithersburg, Md.) or other pro-angiogenesis factors and control disks were saturated with PBS without Calcium and Magnesium. […]
Using sterile forceps one filter/CAM was placed from the window. The window was sealed with Highland brand transparent tape.
After 24-48 hr, 10-25 ul of test agent was injected intravenously or added topically into the CAM membrane. Eight-Ten eggs/treatment group were used.
CAM tissue directly beneath filter disk was harvested from embryos treated 48 hours prior with compound or control. Tissues were washed three times with PBS. Sections were placed in a 35-mm petri dish (Nalge Nunc, Rochester, N.Y.) and examined under a SV6 stereomicroscope (Karl Zeiss, Thornwood, N.Y.) at 50× magnification.
CAM sections from Petri dish were examined using SV6 stereomicroscope (Karl Zeiss) at 50× magnification. Digital images of CAM sections from Petri dish were collected using a 3-CCD color video camera system (Toshiba America, New York, N.Y.). These images were analyzed using Image-Pro Plus software (Media Cybernetics, Silver Spring, Md.).
The number of branch points in blood vessels within the circular region superimposed to the area of a filter disk was counted for each section. After incubation at 37° C. with 55% relative humidity for 3 days, the CAM tissue directly beneath each filter disk was resected from control and treated CAM samples. Tissues were washed three times with PBS. Sections were placed in a 35-mm Petri dish (Nalge Nunc; Rochester, N.Y.) and were examined under a SV6 stereomicroscope (Karl Zeiss; Thornwood, N.Y.) at 50× magnification. Digital images of CAM sections adjacent to filters were collected using a 3-CCD color video camera system (Toshiba America; New York, N.Y.) and analyzed with the Image-Pro Plus software (Media Cybernetics; Silver Spring, Md.).
The number of vessel branch points contained in a circular region equal to the area of a filter disk was counted for each section. Percent inhibition data are expressed as the quotient of the experimental value minus the negative control value divided by the difference between the positive control value and the negative control value. […]

[3] = tested on: Human neuroblastoma SKN-SH cells, resistant to doxorubicin; assay: Chemoresistance: cancer cell viability (MTT) in presence or absence of doxorubicin; format: cell-based; conditions: compound 50 ug/mL, MTT
From the text: A method for evaluating a compound's propensity to overcome cancer cell chemoresistance is described in “Caspase Inhibition Switches Doxorubicin-Induced Apoptosis To Senescence”, Abdelhadi Rebbaa, Xin Zheng, Pauline M Chou and Bernard L Mirkin, Oncogene (2003) 22, 2805-2811. Resistant human cancer cells to doxorubicin were selected by stepwise exposure to drug concentrations ranging from 10^−9 M-10^−6 M over 3 months. They were then subjected to treatment with the doxorubicin alone or in combination with hydroxylamine compounds 1-12, 16, 20, and 21 (Table 4). The cells were incubated with the drugs for 72 hours, and cell viability was measured by the MTT assay. Additionally, molecular pathways that might be associated with increased chemo-responsiveness with these compounds were investigated. p Cancer Cell Viability Data for certain hydroxylamines in the presence or absence of Doxorubicin is listed in Table 4.
A method for evaluating a compound's propensity to overcome cancer cell chemoresistance is described in “Caspase Inhibition Switches Doxorubicin-Induced Apoptosis To Senescence”, Abdelhadi Rebbaa, Xin Zheng, Pauline M Chou and Bernard L Mirkin, Oncogene (2003) 22, 2805-2811. Human neuroblastoma SKN-SH cells (ATCC Cat. No. HTB-11) were cultured in Dulbecco's Modified Eagles Medium (DMEM; Gibco, Grand Island, N.Y.) supplemented with 10% fetal bovine serum (FBS; Sigma-Aldrich, St. Louis, Mo.) at 37° C. in a 95% Air/5% CO2 atmosphere. Resistant human cancer cells to doxorubicin were selected by stepwise exposure to drug concentrations ranging from 10^−9M-10^−6M over 3 months. They were then subjected to treatment with the doxorubicin alone or in combination with hydroxylamine compounds. The cells were incubated with the drugs for 72 hours, and cell viability was measured by the MTT assay. This consists of adding 10 μl/well of MTT (5 mg/ml solution) and incubation for 4 h at 37° C. The precipitate formed is then solubilized by addition of 100 μl of HCL 0.5 N/Isopropanol and incubation for 15 hours at 37° C. The optical density is measured at 570 nm and cell survival is estimated by comparison to untreated cells. Each point represents 4 wells data represent average ± SE. Additionally, molecular pathways that might be associated with increased chemo-responsiveness with these compounds were investigated.
Cytotoxic activity of doxorubicin and hydroxylamine analogs were quantitatively determined by a colorimetric assay utilizing 3-(4,5-dimethyl-2-thiazolyl) 2,5-diphenyl tetrazolium bromide (MTT; Sigma-Aldrich, St. Louis, Mo.). Briefly, cells were seeded at 10^4 cells/well in 96-well plates and maintained in culture for 24 hours at 37° C. in DMEM supplemented with 10% FBS. Drugs were added to designated wells and cells were incubated for […], following which MTT (10 μL of 5 mg/ml solution) was added to each 100 μl well and incubated for 4 hours at 37° C. The cells were solubilized by incubation with 100 μl of HCl 0.5N in isopropanol for 15 hours at 37° C. The optical density of this solution was measured at 570 nm and the percentage of viable cells estimated by comparison with untreated control cells.

Compound | Lipid Peroxidation % Inhibition ([1]; 10 uM) [%] | CAM data % Inhibition [2] [%] | Mean OD (×10^−3), cancer cell viability ([3]; Dox. 10^−6 M present (+)) | Mean OD (×10^−3), cancer cell viability ([3]; Dox. absent (−)) | % Lipid Peroxidation inhibition (at 1 uM) [1] [%] | Percent inhibition of angiogenesis in CAM model at 30 ug [2] [%] | melting point | Lipid Peroxidation % Inhibition ([1]; 100 uM) [%]
COc1cc2c(cc1O)CC[C@@H]1[C@@H]2CC[C@]2(C)[C@@H](O)CC[C@@H]12 [2-Methoxy estradiol, reference compound] | 92.3 | 92.3 | – | – | – | – | – | –
COC1CC(C)(C)N(O)C(C)(C)C1.Cl [Compound 1, 1-hydroxy-4-methoxy-2,2,6,6-tetramethylpiperidine] | 90.8 | – | 246.50 ×10^−3 | 524.75 ×10^−3 | 74.1 | 89.9 | – | –
CC1(C)CC(N2CCOCC2)CC(C)(C)N1O.Cl [Compound 3, 4-(2,2,6,6-tetramethylpiperidin-1-hydroxy-4-yl)morpholine] | 77.8 | – | 289.50 ×10^−3 | 640.25 ×10^−3 | – | 54.7 | – | –
CC1(C)CC(O)C(C)(C)N1O (stereo not drawn) [Compound 7, 2,2,5,5-Tetramethyl-Pyrrolidine-1,3-diol] | 82.9 | – | 241.25 ×10^−3 | 540.25 ×10^−3 | – | 100 | – | –
CC1(C)CC(NS(C)(=O)=O)CC(C)(C)N1O [Compound 10, 1-hydroxy-4-methanesulfonamido-2,2,6,6-tetramethylpiperidine] | 85.8 | – | 250.00 ×10^−3 | 456.00 ×10^−3 | – | 78.2 | – | –
CC(C)(C)/[N+]([O-])=C/c1ccccc1 [Compound 17, α-phenyl-t-butyl nitrone, reference compound] | 0.4 | – | – | – | – | – | – | –
CC1(C)CC(C(N)=O)C(C)(C)N1O (stereo not drawn) [Compound 24, 1-hydroxy-2,2,5,5-tetramethylpyrrolidine-3-carboxamide] | – | – | 362.00 ×10^−3 | 1166.50 ×10^−3 | 37.0 | 65.8 | – | –
CC1(C)C=C(CO)CC(C)(C)N1O.Cl [Compound 25] | – | – | 325.00 ×10^−3 | 1137.50 ×10^−3 | 42.0 | 62.9 | – | –
Cc1cc(O)c(O)cc1C(=O)NC1CC(C)(C)N(O)C(C)(C)C1.Cl [Compound 27, 4,5-dihydroxy-2-methyl-N-(1-hydroxy-2,2,6,6-tetramethylpiperidin-4-yl)benzamide] | – | – | 403.75 ×10^−3 | 1038.33 ×10^−3 | 53.4 | 88.3 | – | –
CC(C)(C)c1cc(NC(=O)C2CC(C)(C)N(O)C(C)(C)C2)cc(C(C)(C)C)c1O.Cl [Compound 29, N-(3,5-di-tert-butyl-4-hydroxyphenyl)-1-hydroxy-2,2,6,6-tetramethylpiperidine-4-carboxamide] | – | – | 105.75 ×10^−3 | 1328.00 ×10^−3 | 92.3 | 100 | – | –
CC1(C)CC(CO)C(C)(C)N1O.Cl (stereo not drawn) [Compound 33] | – | – | 300.00 ×10^−3 | 1237.50 ×10^−3 | 54.9 | 77.8 | – | –
CC1(C)C=CCC(C)(C)N1O.Cl [Compound 35, 1-hydroxy-1,2,3,6-tetrahydro-2,2,6,6-tetramethylpyridine] | – | – | 352.75 ×10^−3 | 1128.00 ×10^−3 | 64.4 | – | – | –
CC1(C)CC(OCc2ccccc2)CC(C)(C)N1O.Cl [Compound 43, 4-Benzyloxy-1-hydroxy-2,2,6,6-tetramethylpiperidine] | – | – | 324.67 ×10^−3 | 1159.00 ×10^−3 | – | 85.5 | 181.5 °C (dec.) | –
CC1(C)CC(Oc2nsnc2-c2ccccc2)CC(C)(C)N1O.Cl [Compound 44, 1-hydroxy-4-(4-phenyl-1,2,5-thiadiazol-3-yloxy)-2,2,6,6-tetramethylpiperidine] | – | – | 13.25 ×10^−3 | 23.00 ×10^−3 | – | 71.2 | 220.8 °C (dec.) | –
CC1(C)CC(O)(c2ccc(F)cc2)CC(C)(C)N1O.Cl [Compound 57, 4-(4-Fluorophenyl)-1-hydroxyl-2,2,6,6-tetramethylpiperidin-4-ol] | – | – | 426.25 ×10^−3 | 1078.50 ×10^−3 | – | 100 | 220 °C (dec.) | –
COc1cc(CNC2CC(C)(C)N(O)C(C)(C)C2)cc(OC)c1OC.Cl.Cl [Compound 58, N-(3,4,5-trimethoxybenzyl)-1-hydroxy-2,2,6,6-tetramethylpiperidin-4-amine] | – | – | 291.50 ×10^−3 | 1207.00 ×10^−3 | – | 39 | 181 °C | –
O=C(O)c1cc(C(=O)O)c2c(n1)C(=O)C(=O)c1cc(C(=O)O)[nH]c1-2 [PQQ, pyrroloquinoline quinone, reference compound] | – | – | – | – | – | – | – | 93.7
